In patent publication US8247211B2, “Glycopeptide antibiotics” (American Cyanamid Company, priority 2001, dated 2012):

What was measured:
Test in all cases: In vitro antibacterial evaluation: minimum inhibitory concentration (MIC), broth dilution method
Type in all cases: cell-based
Enterococcus sp. = conditions: 18 hours at 35° C.
In short: (§1)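 Following NCCLS approved standard M7-A2, compounds are serially diluted from 64 to 0.06 μg/mL in Muller-Hinton II […] and inoculated at 5×10^5 CFU/mL; the MIC is the minimum concentration at which growth is inhibited.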

Escherichia coli = Escherichia coli (GC 4560); 18 hours at 35° C.
In short: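 Using Muller-Hinton II […] and an inoculum of 5×10^5 CFU/mL, antibiotic dilutions from 64 down to 0.06 μg/mL were tested following NCCLS M7-A2. The MIC is the lowest concentration inhibiting growth, including in methicillin-, penicillin- or vancomycin-resistant clinical isolates.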

Staphylococcus sp. = conditions: for MIC Staphylococcus haemolyticus (GC 4546): strain GC 4546; for MIC Coagulase Negative Staphylococcus (GC 4547): strain GC 4547; for MIC Coagulase Negative Staphylococcus (GC 4548): strain GC 4548; for MIC Coagulase Negative Staphylococcus (GC 4549): strain GC 4549; for MIC Coagulase Negative Staphylococcus (GC 4551): strain GC 4551
In short: as §1

Streptococcus sp. = conditions: 18 hours at 35° C.
In short: as §1

[1] = Enterococcus faecalis (ATCC 29212)
[2] = Enterococcus faecalis (GC 2242)
[3] = Enterococcus faecalis (GC 2691)
[4] = Enterococcus faecalis (GC 4552)
[5] = Enterococcus faecalis (GC 4553)
[6] = Enterococcus faecalis (GC 6189)
[7] = broth dilution, inoculum 5×10^5 CFU/mL
[8] = Streptococcus agalactiae (GC 4564)
[9] = Streptococcus pneumoniae (ATCC 6301)
[10] = Streptococcus pneumoniae (GC 1894)
[11] = Streptococcus pneumoniae (GC 4565)
[12] = Streptococcus pyogenes (GC 4563)

CC(c1ccccc1)C1NC(=O)CNC(=O)C(CO)NC(=O)C(C(O)C2CN(Cc3ccc(C(F)(F)F)cc3)C(=N)N2C2OC(CO)C(O)C(O)C2O)NC(=O)C(C(O)C2CNC(=N)N2)NC(=O)C(Cc2ccc(OC3OC(CO)C(OC4OC5COC6(OC5C(O)C4O)C4CC5CC(C4)CC6C5)C(O)C3O)cc2)NC1=O (centres unmarked) [Example 226]
4 µg/mL: MIC Escherichia coli (GC 4560) (Escherichia coli) | MIC Streptococcus agalactiae (GC 4564) (Streptococcus sp.; [8]) | MIC Streptococcus pneumoniae (ATCC 6301) (Streptococcus sp.; [9]) | MIC Streptococcus pneumoniae (GC 4565) (Streptococcus sp.; [11]) | MIC Streptococcus agalactiae (GC 4564) (Streptococcus sp.; [7]) | MIC Streptococcus pneumoniae (ATCC 6301) (Streptococcus sp.; [7]) | MIC Streptococcus pneumoniae (GC 4565) (Streptococcus sp.; [7])
16 µg/mL: MIC Enterococcus faecalis (GC 2242) (Enterococcus sp.; [2]) | MIC Enterococcus faecalis (GC 4553) (Enterococcus sp.; [5]) | MIC Enterococcus faecium (GC 2243) (Enterococcus sp.; Enterococcus faecium (GC 2243)) | MIC Enterococcus faecalis (GC 2242) (Enterococcus sp.; [7]) | MIC Enterococcus faecalis (GC 4553) (Enterococcus sp.; [7]) | MIC Enterococcus faecium (GC 2243) (Enterococcus sp.; [7]) | MIC Staphylococcus aureus (ATCC 29213) (Staphylococcus sp.; strain ATCC 29213) | MIC Staphylococcus aureus (GC 1131) (Staphylococcus sp.; strain GC 1131) | MIC Staphylococcus aureus (GC 3051) (Staphylococcus sp.; strain GC 3051) | MIC Staphylococcus aureus (GC 3053) (Staphylococcus sp.; strain GC 3053) | MIC Staphylococcus aureus (GC 4542) (Staphylococcus sp.; strain GC 4542) | MIC Staphylococcus aureus (GC 4544) (Staphylococcus sp.; strain GC 4544) | MIC Staphylococcus aureus (GC 4545) (Staphylococcus sp.; strain GC 4545) | MIC Coagulase Negative Staphylococcus (GC 4549) (Staphylococcus sp.)
0.5 µg/mL: MIC Streptococcus pneumoniae (GC 1894) (Streptococcus sp.; [10]) | MIC Streptococcus pneumoniae (GC 1894) (Streptococcus sp.; [7])
8 µg/mL: MIC Enterococcus avium (GC 4558) (Enterococcus sp.; Enterococcus avium (GC 4558)) | MIC Enterococcus avium (GC 4558) (Enterococcus sp.; [7]) | MIC Staphylococcus aureus (GC 4541) (Staphylococcus sp.; strain GC 4541) | MIC Staphylococcus aureus-SMITH (GC 4543) (Staphylococcus sp.; strain GC 4543) | MIC Staphylococcus haemolyticus (GC 4546) (Staphylococcus sp.) | MIC Coagulase Negative Staphylococcus (GC 4547) (Staphylococcus sp.) | MIC Coagulase Negative Staphylococcus (GC 4548) (Staphylococcus sp.) | MIC Coagulase Negative Staphylococcus (GC 4551) (Staphylococcus sp.)
32 µg/mL: MIC Enterococcus faecalis (ATCC 29212) (Enterococcus sp.; [1]) | MIC Enterococcus faecalis (GC 2691) (Enterococcus sp.; [3]) | MIC Enterococcus faecalis (GC 3059) (Enterococcus sp.; Enterococcus faecalis (GC 3059)) | MIC Enterococcus faecalis (GC 4552) (Enterococcus sp.; [4]) | MIC Enterococcus faecalis (GC 4554) (Enterococcus sp.; Enterococcus faecalis (GC 4554)) | MIC Enterococcus faecalis (GC 6189) (Enterococcus sp.; [6]) | MIC Enterococcus faecium (GC 4556) (Enterococcus sp.; Enterococcus faecium (GC 4556)) | MIC Enterococcus faecalis (ATCC 29212) (Enterococcus sp.; [7]) | MIC Enterococcus faecalis (GC 2691) (Enterococcus sp.; [7]) | MIC Enterococcus faecalis (GC 3059) (Enterococcus sp.; [7]) | MIC Enterococcus faecalis (GC 4552) (Enterococcus sp.; [7]) | MIC Enterococcus faecalis (GC 4554) (Enterococcus sp.; [7]) | MIC Enterococcus faecalis (GC 6189) (Enterococcus sp.; [7]) | MIC Enterococcus faecium (GC 4556) (Enterococcus sp.; [7])
2 µg/mL: MIC Enterococcus faecium (GC 4557) (Enterococcus sp.; Enterococcus faecium (GC 4557)) | MIC Enterococcus faecium (GC 4557) (Enterococcus sp.; [7]) | MIC Coagulase Negative Staphylococcus (GC 6257) (Staphylococcus sp.; strain GC 6257) | MIC Streptococcus pyogenes (GC 4563) (Streptococcus sp.; [12]) | MIC Streptococcus pyogenes (GC 4563) (Streptococcus sp.; [7])

CC(c1ccccc1)C1NC(=O)CNC(=O)C(CO)NC(=O)C(C(O)C2CN(c3nc4ccccc4o3)C(=N)N2C2OC(CO)C(O)C(O)C2O)NC(=O)C(C(O)C2CNC(=Nc3nc4ccccc4o3)N2)NC(=O)C(Cc2ccc(OC3OC(CO)C(OC4OC5COC6(OC5C(O)C4O)C4CC5CC(C4)CC6C5)C(O)C3O)cc2)NC1=O (stereo not drawn) [Example 227, Di-N-(2-(1,3-benzoxazolyl)-cyclo[glycyl-β-methylphenylalanyl-O-[4-O-[4,6-O-(2-adamantylidene)hexopyranosyl]hexopyranosyl]tyrosyl-3-[2-iminoimidazolidin-4-yl]seryl-3-β-hexopyranosyl-2-iminoimidazolidin-4-yl]serylseryl]]
32 µg/mL: MIC Enterococcus faecium (GC 2243) (Enterococcus sp.; Enterococcus faecium (GC 2243)) | MIC Enterococcus faecium (GC 2243) (Enterococcus sp.; [7]) | MIC Coagulase Negative Staphylococcus (GC 4547) (Staphylococcus sp.) | MIC Coagulase Negative Staphylococcus (GC 4549) (Staphylococcus sp.) | MIC Streptococcus pneumoniae (ATCC 6301) (Streptococcus sp.; [9]) | MIC Streptococcus pneumoniae (GC 1894) (Streptococcus sp.; [10]) | MIC Streptococcus pyogenes (GC 4563) (Streptococcus sp.; [12]) | MIC Streptococcus pneumoniae (ATCC 6301) (Streptococcus sp.; [7]) | MIC Streptococcus pneumoniae (GC 1894) (Streptococcus sp.; [7]) | MIC Streptococcus pyogenes (GC 4563) (Streptococcus sp.; [7])
8 µg/mL: MIC Enterococcus avium (GC 4558) (Enterococcus sp.; Enterococcus avium (GC 4558)) | MIC Enterococcus faecalis (GC 4553) (Enterococcus sp.; [5]) | MIC Enterococcus faecium (GC 4557) (Enterococcus sp.; Enterococcus faecium (GC 4557)) | MIC Enterococcus avium (GC 4558) (Enterococcus sp.; [7]) | MIC Enterococcus faecalis (GC 4553) (Enterococcus sp.; [7]) | MIC Enterococcus faecium (GC 4557) (Enterococcus sp.; [7]) | MIC Escherichia coli (GC 4560) (Escherichia coli) | MIC Coagulase Negative Staphylococcus (GC 4551) (Staphylococcus sp.)
4 µg/mL: MIC Coagulase Negative Staphylococcus (GC 4548) (Staphylococcus sp.)
64 µg/mL: MIC Enterococcus faecalis (ATCC 29212) (Enterococcus sp.; [1]) | MIC Enterococcus faecalis (GC 2242) (Enterococcus sp.; [2]) | MIC Enterococcus faecalis (GC 2691) (Enterococcus sp.; [3]) | MIC Enterococcus faecalis (GC 4552) (Enterococcus sp.; [4]) | MIC Enterococcus faecalis (GC 6189) (Enterococcus sp.; [6]) | MIC Enterococcus faecium (GC 4556) (Enterococcus sp.; Enterococcus faecium (GC 4556)) | MIC Enterococcus faecalis (ATCC 29212) (Enterococcus sp.; [7]) | MIC Enterococcus faecalis (GC 2242) (Enterococcus sp.; [7]) | MIC Enterococcus faecalis (GC 2691) (Enterococcus sp.; [7]) | MIC Enterococcus faecalis (GC 4552) (Enterococcus sp.; [7]) | MIC Enterococcus faecalis (GC 6189) (Enterococcus sp.; [7]) | MIC Enterococcus faecium (GC 4556) (Enterococcus sp.; [7]) | MIC Staphylococcus haemolyticus (GC 4546) (Staphylococcus sp.) | MIC Streptococcus agalactiae (GC 4564) (Streptococcus sp.; [8]) | MIC Streptococcus pneumoniae (GC 4565) (Streptococcus sp.; [11]) | MIC Streptococcus agalactiae (GC 4564) (Streptococcus sp.; [7]) | MIC Streptococcus pneumoniae (GC 4565) (Streptococcus sp.; [7])
